Data taken from patent US7341988B2, “Method of treating influenza with geranyl-geranyl acetone” (Eisai R&D Management Co., Ltd., priority 2001, dated 2008).

Tests used:
[1] = tested on: influenza A virus, A/PR/8/34 (H1 N1) strain; experiment: Weight loss in mouse PR8 infection model; assay type: in vivo, BALB/cN mice; conditions: GGA treated groups (oral every 12 hours for 3 weeks before infection) except the 75G-PR8 group; control weight loss reaching 30%
Experimental: FIG. 1 indicates an improvement trend of clinical infection symptoms caused by administration of GGA in a mouse PR8 infection model according to the present invention. BALC/c mice that used in the present invention were randomly allotted into the following 4 groups: (1) Control group (n=30) is transnasally administered 2×10^5 PFU of A/PR/8/34; the GGA pre-treatment groups were orally administered GGA every 12 hours for 3 weeks in doses of: (2) 150 mg/kg (150G-PR8 group; n=30), (3) 75 mg/kg (75G-PR8 group; n=30), (4) 15 mg/kg (15G-PR8 group; n=30) and were infected with PR8 after 3 weeks in the same manner. The body weights of the mice were measured 1, 2, 3, 4, 7, and 10 days after infection;
(§1) The virus used in the present invention was the influenza A virus, A/PR/8/34 (H1 N1) strain (hereinafter referred to “PR8”); the mice were 6-week old female SPF (specific pathogen-free) BALB/cN mice (Charles River Japan Co., Ltd.); and the cells were A549 cells derived from human alveolar epithelial cell.
First, the aforementioned mice were raised in a cage for each 4 mice under clean conditions and allowed free access to sterilized feed and water. […]

[2] = tested on: influenza A virus, A/PR/8/34 (H1 N1) strain; experiment: Viral replication in the lungs of infected mice, plaque assay using MDCK; assay type: in vivo, BALB/cN mice
Excerpt: as §1
(§2) The mice were randomly divided into the following 4 treatment groups, and tested: (1) Control group; intranasl infection with PR8 (2×10^5 PFU) (2) 150G-PR8; group; after administration of 150 mg/kg of GGA, infected with the same amount of PR8 in the same manner as the control group; (3) 75G-PR8 group; after administration of 75 mg/kg of GGA, infected with the same amount of PR8 in the same manner as the control group; (4) 15G-PR8 group; after administration of 15 mg/kg of GGA, infected with the same amount of PR8 in the same manner as the control group. The aforementioned group (1) refers to the control group, and groups (2) to (4) refer to the GGA treated group prior to infection. The GGA treated groups were orally administered GGA every 12 hours for 3 weeks.
FIG. 2 indicates the effects of GGA on viral replication in the lungs of the mice of the various groups after infection by an influenza virus according to the present invention. Here, the assay of virus in the lung was conducted by plaque assay using MDCK.

[3] = tested on: viral nucleoprotein (NP) of PR8; experiment: Viral nucleoprotein (NP) synthesis in the lungs of infected mice, Western blot and EIA; assay type: in vivo, BALB/cN mice; conditions: GGA treated groups compared with control group
Excerpt: as §1, §2
FIG. 3 indicates the results of the effects of GGA on viral nucleoprotein (called “NP” hereinafter) synthesis in the lungs of the mice of the various groups after infection by an influenza virus according to the present invention. The amount of NP synthesis was measured with Western blot analysis. […]

HSP70 [4] = assay type: in vivo, BALB/c mice
HSP70 [5] = experiment: HSP induction in A549 cells (northern blot, 35S-methionine pulse labeling, western blot); assay type: cell-based, human
[6] = tested on: influenza A virus, A/PR/8/34 (H1 N1) strain; assay type: cell-based; conditions: A549 cells
M×A genes = experiment: Expression of antiviral gene MxA in PR8-infected A549 cells, northern blot; assay type: cell-based, human
Excerpt: Studied next were the effects of GGA treatment on the expression of antiviral genes after infection by PR8, and the results are indicated in FIGS. 12 and 13. […] It should be noted that the GAPDH in FIG. 12 was used as a control in the same way as previously described in FIG. 5.

[7] = tested on: interferon-inducible double-stranded RNA activated protein kinase (PKR); experiment: PKR mRNA expression in A549 cells, RT-PCR; assay type: cell-based, human; conditions: β-actin control
Excerpt: FIG. 13 indicates the results of using RT-PCR to assay the mRNA expression of interferon-inducible double-stranded RNA activated protein kinase (hereinafter referred to “PKR”), which has an antiviral action. […] It should be noted that β-actin in this diagram was used was a control.

[8] = GGA treatment (+), pulse labeling

## CC(=O)CC/C=C(\C)CC/C=C(\C)CC/C=C(\C)CCC=C(C)C [GGA, 6, 10, 14, 18-tetramethyl-5,9, 13, 17-nonadecatetraen-2-one]
[1]
  weight loss caused by PR8 infection: almost no weight loss
[2]; 75G-PR8 group (75 mg/kg GGA)
  time after infection at which virus was completely eliminated from the lungs: 4 days
[2]; 150G-PR8 group (150 mg/kg GGA)
  time after infection at which virus was completely eliminated from the lungs: 3 days
[2]; GGA 150, 75, 15 mg/kg oral every 12 hours for 3 weeks before PR8 infection, vs control
  growth of virus in the lungs: suppressed in a GGA dose-dependent manner
[3]
  NP synthesis in the lungs, Western blot: suppression of NP synthesis in a dose dependent manner
  capacity to synthesize NP after infection with PR8, EIA: notably reduced
HSP70 [4]; […], GAPDH control
  amount of HSP70 mRNA expressed in the lungs after PR8 infection: dependent on the amount of GGA administered
HSP70 [4]; mouse, in vivo
  expression of HSP70 in the lungs, GGA alone: induced in a dose dependent manner
HSP70 [5]; A549 cells, western blot with HSP70 antibodies
  time of peak HSP70 expression after administering GGA: 6 h
HSP70 [5]; northern blot, GAPDH control
  expression of HSP70 mRNA in A549 cells: induced in a concentration and time dependent manner
[6]; [8]
  HSP70 synthesis in the early period of infection: enhancement of HSP70 synthesis was observed
  time after infection at which NP synthesis began: > 12 h
[6]; PR8 infection, pulse labeling
  NP synthesis capacity compared to GGA treatment (−): suppressed
[6]; compared to the control
  capacity to synthesize viral proteins of PR8 (HA, NP, M1, NS1): notably suppressed
[6]; densitometric analysis at 3, 6, 12, 24 hours
  duration of HSP70 expression after PR8 infection: up to 12 hours
[6]; western blot
  time after infection up to which expression of NP was prevented: up to 12 hours
M×A genes; A549 cells after infection with PR8, GAPDH control
  expression of M×A genes: enhanced
M×A genes; A549 cells after infection with PR8, northern blot
  expression of HSP mRNA after PR8 infection: enhanced
[7]
  expression of PKR mRNA: enhanced expression
